The values that follow come from a melting point compilation (Tetko et al.; mined from patent text by program, amines drawn as free bases though some values may be those of a salt).

`C#CCOc1cc(N2C(=O)c3ccccc3C2=O)c(F)cc1C#N`: the melting point (as a rule, the temperature of the solid-liquid transition) came out at 242 °C.

For `Cc1ccc(-c2cc(C)c3c(c2)C(C)CC(=O)N3)c(C)n1` (stereo not given), the melting point was in the range of 146 to 148 °C.

Molecule `N#CCOc1ccc2occ(CC#N)c2c1` came in with a melting point of 86 to 87 °C.

Regarding `O=[N+]([O-])c1ccc(S(=O)(=O)Nc2cccc3c(Cl)c[nH]c23)cc1`, the melting point is 200 °C.

As for `O=C(CCCN1CCOCC1)c1ccc2oc3ccc(C(=O)CCCN4CCOCC4)cc3c2c1`, the melting point was in the range of 98 to 99 °C.

Take `COc1ccc2nc(SC(C#N)c3ncc(C)c(OC)c3C)[nH]c2c1` (stereo not given): the melting point lay in the range of 193 to 197 °C.

Molecule `CCCCCCCCCCCCCCCCCCCCCCOC(=O)C(C)O` (stereo not given) displayed a melting point of 57 °C.

In turn, `O=S(=O)(/C=C/c1ccc(Cl)cc1)CS(=O)(=O)/C=C/c1ccc(Cl)cc1` registered a melting point of 178 to 180 °C.

As to `CCC(N=O)C(C)(C)Cl` (stereo not given), the melting point was in the range of 85 to 86 °C.

The molecule `O[C@H]1CC[C@@H](CCN2CCC(=C3c4ccc(F)cc4Sc4ccc(C(F)(F)F)cc43)CC2)CC1` registered a melting point of 147 to 150 °C.

In the case of `Cc1cccn2cc(C(C)C)c(S(=O)(=O)c3ccc(O)cc3)c12`, the melting point lay in the range of 191 to 193 °C.

The molecule `CCCCCCC(=O)C=Cc1ccc(O)c(O)c1` returned a melting point of 114 to 115 °C.

The molecule `CSc1nn2c(N)cc(C)nc2c1S(=O)(=O)c1ccc(C)cc1` came in with a melting point of over 230 °C.

The molecule `CC(C)(C)OC(=O)C(C1NC(C(=O)OCc2ccccc2)C2(CCCCC2)S1)N1C(=O)c2ccccc2C1=O` (stereo not given) yielded a melting point of 165 to 166 °C.

The molecule `CS(=O)(=O)c1ccc(Oc2cc(OC3CCOCC3)c3[nH]c(C4=NCC(CC(N)=O)S4)cc3c2)cn1` (stereo not given) gave a melting point of 136 to 138 °C.

On to `c1ccc2c(c1)nnn2C(n1nnc2ccccc21)n1nnc2ccccc21`, for which the melting point was 194 to 195 °C.

Take `COCC(=O)C1CCC2C3CCC4CC(O)CCC4(C)C3C(=O)CC12C` (stereo not given): the melting point lay in the range of 144 to 146 °C.

In turn, `COCCOc1ccccc1OS(=O)(=O)NC(=O)Nc1nc(OC)cc(OC)n1` yielded a melting point of 106 to 108 °C.

Turning to `CCCc1ccc2nc(S(=O)(=O)CC)c(S(N)(=O)=O)n2n1`, the melting point fell in the range of 232 to 233 °C.

Take `CCOC(=O)N1CC(C)C2=NNC(=O)CC2C1` (stereo not given): the melting point lay in the range of 101 to 103 °C.

`C=C(C)COc1ccc(Br)cc1CN(CC)c1ccc(C(=O)NS(=O)(=O)c2c(C)noc2C)nn1` came in with a melting point of 120 °C.

In the case of `COc1ccc(-c2ccc3ccc(NC(=O)c4ccccc4)nc3n2)cc1`, the melting point was 185 to 187 °C.

In the case of `CC(C)NC(=S)n1ccc2ccc(Cl)cc21`, the melting point was 92 to 93 °C.

`Cc1oc(-c2ccccc2)nc1COc1ccc2cc(C=CC=C3SC(=O)NC3=O)ccc2c1` registered a melting point of 267 to 268 °C.

Take `Cn1cc(CO)c(=O)c2ccc(C(F)(F)F)cc21`: the melting point is 172 to 175 °C.

Consider `CCN1C(=O)N(CC2CC2)c2ccc(Cl)cc2C1c1ccccc1` (stereo not given), for which the melting point is 88 to 90 °C.

Molecule `Cc1ccc(S(=O)(=O)N2Cc3c(C)sc(C)c3C2)cc1` gave a melting point of 163 to 164 °C.

`C=C1c2ccn3c(C)c(C)nc3c2N[C@H](c2ccccc2)[C@H]1O` came in with a melting point of 199 to 202 °C.

Molecule `COc1ccc(NC(=O)C2CC2)cn1` gave a melting point of 130 to 131 °C.

As for `O=C1CN2Cc3cc(OCCCC(=O)N(CCO)CC4CCCCC4)ccc3N=C2N1`, the melting point lay within 223 to 224 °C.

For `CC(C)(C)OC(=O)[C@H](CSSC[C@H](NC(=O)OCc1ccccc1)C(=O)OC(C)(C)C)NC(=O)OCc1ccccc1`, the melting point lay within 77 to 78 °C.

Molecule `CCOC(=O)c1cn(Cc2ccc(OCc3coc(-c4ccccc4)n3)cc2)nc1-c1cccs1` registered a melting point of 114 to 115 °C.

Molecule `CC(C)Sc1c(C2=NC(C)(C)CO2)oc(Br)c1Br` registered a melting point of 71 to 72 °C.

`COC(=O)CC(=O)c1cncc(OC)n1` yielded a melting point of 66 °C.

With `COc1ccc(C(=O)Nc2ccccc2)cc1Nc1ccccc1`, the melting point was 194 to 195 °C.

Take `O=C(N[C@H](Cc1ccc(Oc2ccccc2)cc1)[C@@H](O)c1ccc(F)cc1)c1ccc(F)c2ccccc12` (racemic): the melting point lay in the range of 104 to 105 °C.

`Cc1ccc2cc(-c3cccc4ccccc34)ccc2n1` yielded a melting point of 111 °C.

Regarding `COC(=O)CCCc1ccc(OCCN(C)c2nc3ccccc3o2)cc1`, the melting point was 117 to 119 °C.

In turn, `CC(C)Nn1c(CO)nc2c(N)nc3cccnc3c21` gave a melting point of 242 to 243 °C.

Regarding `Clc1ccc(NC2CCN(Cc3ccccc3)CC2)nn1`, the melting point was in the range of 208 to 209 °C.

`Cc1nccn1NCc1cc(C(C)(C)C)c(O)c(C(C)(C)C)c1` had a melting point of 181 to 182 °C.

In turn, `CCCCCCc1ccc(C(=O)CCCCC(=O)O)cc1` displayed a melting point of 77 to 79 °C.

The molecule `OC1CSC(Oc2cnc(Cl)c(F)c2)C(O)C1O` (stereo not given) registered a melting point of 198 to 200 °C.

Molecule `Cn1ccc2cc(N3Cc4ccc(Br)cc4C3=O)ccc21` registered a melting point of 235 to 237 °C.

Molecule `COc1ccc(C(O)=C(C#N)C(=O)C(C)(C)C)c([N+](=O)[O-])c1` yielded a melting point of 85 to 88 °C.

With `CC1(n2cccc2)CN(c2c(F)cc3c(=O)c(C(=O)O)cn(C4CC4)c3c2F)C1`, the melting point was 249 to 252 °C.

For `CC(CC#N)C(=O)c1ccc(C(=O)C(C)CC#N)cc1` (stereo not given), the melting point fell in the range of 142 to 145 °C.

As to `CC(C)CC1(C(CCN2C(=O)c3c(F)c(F)c(F)c(F)c3C2=O)C(=O)NO)CCN(Cc2ccccc2)C1=O` (stereo not given), the melting point lay in the range of 183 to 185 °C.

Take `N#Cc1cc(Cl)cc(Oc2ccc(CC(=O)Nc3ccc(S(N)(=O)=O)cc3Br)cc2Br)c1`: the melting point was 168 to 170 °C.

The molecule `O=C(Oc1ccc(Cl)cn1)c1cc2ccccc2sc1=O` showed a melting point of 174 to 176 °C.

The molecule `Cc1nn(-c2cc(Oc3ccc(C#N)cc3)c(Cl)cc2F)c(=O)n1C(F)F` yielded a melting point of 175 to 177 °C.

The molecule `O=[N+]([O-])c1ccc(Oc2ccc(Cl)cc2)cc1` came in with a melting point of 67 to 70 °C.

Molecule `CCOC(=O)Cc1c(C)[nH]c2cc(F)c(OC)c(F)c12` showed a melting point of 92.1 to 92.7 °C.

As to `OCCC1(c2ccc(Cl)c(Cl)c2)CCCNC1` (stereo not given), the melting point worked out at 122 °C.

The molecule `NC(=O)[C@@H]1COCN1C(=O)CCl` had a melting point of 131 to 133 °C.

On to `COc1cc([N+](=O)[O-])ccc1S(=O)(=O)N1C(=O)C(NC(C)=O)(c2ccccc2Cl)c2cc(Cl)ccc21` (stereo not given), for which the melting point fell in the range of 205 to 210 °C.

`O=C(Nc1nnc(CC2CC2)o1)C(c1ccccc1)c1ccccc1` yielded a melting point of 158 to 159 °C.

With `COC1CCN2C(=O)c3cccc(NC(=O)Nc4ccccn4)c3C2C1` (stereo not given), the melting point was in the range of 166 to 168 °C.

`CC(C)(C)OC(=O)N1CC(O)C(SCc2ccccc2)C1` (stereo not given) had a melting point of 97 to 98 °C.

On to `COc1ccc(C(=O)Nc2ccc(C(=O)Cl)c3ccccc23)cc1OC`, for which the melting point was in the range of 167 to 171 °C.

Take `C[C@H](CO)Nc1nc(SCc2cccc(C(F)(F)F)c2F)nc2[nH]c(=O)cnc12`: the melting point was in the range of 217 to 219 °C.

The molecule `Cc1cc2c(CCl)c(CO)c(Cl)nc2cc1Cl` came in with a melting point of 169 to 170 °C.

Molecule `O=Cc1c(Cl)nc2ccccc2c1-c1ccc(F)cc1` came in with a melting point of 168 to 170 °C.

Consider `COc1ccccc1N1CCN([C@@H]2Cc3c(O)cccc3C[C@H]2O)CC1` (relative stereo), for which the melting point lay within 218 to 220 °C.

The molecule `O=C(O)CCc1cc(F)c2ncc(C(=O)NCc3ccc(Cl)cc3)c(O)c2c1` returned a melting point of 284 to 286 °C.

For the molecule `Nc1nc2c(s1)CCN(CC=Cc1cccc([N+](=O)[O-])c1)CC2`, the melting point was 165 to 168 °C.

Turning to `O=C(O)c1cnc(C(F)(F)F)nc1C(F)(F)F`, the melting point worked out at 59 °C.

Turning to `CN1C(=O)N(CC(COc2ccc(-c3cccc(C#N)c3)cc2)N(O)C=O)C(=O)C1(C)C` (stereo not given), the melting point is 130 to 132 °C.

Regarding `COc1ccc(-c2nc(O)c(C)s2)cc1`, the melting point is 149 to 150 °C.

The molecule `CNc1nc(N)ncc1-c1ccc(Cl)cc1Cl` returned a melting point of 189 to 190 °C.

For the molecule `CC1=C(c2ccccc2F)C(=O)N(C(C)(C)C(O)c2ccc(F)c(C)c2)CO1` (stereo not given), the melting point lay within 87.6 to 89 °C.

In the case of `Cc1cccc2c(=O)[nH]c(=O)[nH]c12`, the melting point was 170 °C.

With `N=C(N)Nc1nc(CCCCNc2ncc(Cc3ccc(Cl)cc3)c(=O)[nH]2)cs1`, the melting point lay within 200 to 205 °C.

`CCCN(c1ccccc1)C1CCN(CCOc2c(C)cccc2C)CC1` had a melting point of 82 °C.

In turn, `COc1cccc2sc(Sc3ccc4c(c3)CC[C@H]3N(C)C(=O)CC[C@]43C)nc12` displayed a melting point of 200 to 205 °C.

Regarding `COC(=O)C(=Cc1c[nH]c2cc(Cl)ccc12)NC(C)=O`, the melting point was 202 to 203 °C.

`CCc1nnc2c(N)nc3ccccc3n12` returned a melting point of 284 to 288 °C.

As for `Cc1[nH]c(-c2ccccc2)c(N)c1C(=O)c1ccccc1`, the melting point is 203 to 205 °C.

`CS(=O)(=O)c1ccc(C(=O)N2CCNC2=Nc2c(Cl)cccc2Cl)cc1` had a melting point of 240 to 244 °C.

Turning to `CCCCc1c(C(=O)OCC)[nH]c2c(Br)cccc2c1=O`, the melting point came out at 88 °C.

`COc1cc2ncnc(Nc3cccc(Cl)c3F)c2cc1OC1CCN(C(=O)CO)CC1`: the melting point came to 196 °C.

In turn, `Cc1sc(-c2ccccc2)nc1COc1ccc(COc2ncccc2C=O)cc1` had a melting point of 101 to 102 °C.

Molecule `CN(C)C1CCN(c2nccc(Oc3ccc(NC(=O)c4cc(F)cc(N5CCCCC5)c4)c4ccccc34)n2)C1` (stereo not given) displayed a melting point of 93 to 94 °C.

`CCC1Cc2c(nc3ccc(F)cc3c2C(=O)O)-c2ccc(-c3ccccc3F)cc21` (stereo not given): the melting point was in the range of 236 to 237 °C.

Regarding `Cc1cc(O)ccc1-c1ccc2cc(O)ccc2c1`, the melting point lay within 191 to 193 °C.

For the molecule `CN1C(=O)c2ccccc2N=C(NCCc2ccccc2)C1c1ccccc1` (stereo not given), the melting point lay in the range of 173 to 174 °C.

`COCOc1cc(/C=C/S(=O)(=O)NC(=O)OC(C)(C)C)n(Cc2ccc(Cl)cc2Cl)n1` returned a melting point of 139 to 140 °C.

As for `N#Cc1c(Cl)c(Cl)n(CCl)c1-c1ccc(Cl)c(Cl)c1`, the melting point lay within 153 to 156 °C.

`O=C(/C=C/c1ccccc1)Nc1cccc(F)c1` displayed a melting point of 110 °C.

`CC(C)=NN(C)C1=NOCc2ccc(Cl)cc21` returned a melting point of 105 to 106 °C.
